The values that follow come from the METLIN SMRT retention time set (Domingo-Almenara et al. 2019).

The series in a line: gradient 5% acetonitrile 3 min, to 50% in 2 min, to 85% in 15 min, held 3 min, 100 µL/min. The settings on record: column: Zorbax Extend-C18 2.1 x 50 mm; eluents: water / acetonitrile, 0.1% formic acid. In short, it runs like this: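 Each retention time is based on an adduct peak selected computationally and verified by manual inspection. Measurements used HPLC–quadrupole time-of-flight mass spectrometry in positive and negative ionization mode on mixtures of ~100 pure standards. Chromatography ran on a Zorbax Extend-C18 column (2.1 × 50 mm, 1.8 μm) at 100 μL/min with water and acetonitrile, each containing 0.1% formic acid, and dead and dwell volumes of 40 μL and 900 μL.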
`COc1ccc(OC)c(CNC(=O)c2ccc(-c3cncnc3)nc2)c1`: the RP-LC retention time came to 700 s.
For `Cc1nnc(-c2cc(C)n(CC(=O)Nc3cccc(C)c3C)c2C)o1` the value was 767 s; for `O=C(COc1ccccc1F)NCCS(=O)(=O)N1CCN(c2ncccn2)CC1`, 716 s.
For `CC(=O)c1cccc(NC(=O)Cn2nc3c4cc(-c5ccc(Cl)cc5)nn4ccn3c2=O)c1` the value was 902 s; for `CCOC(=O)Nc1ccc(C(=O)/C=C/c2ccccc2)cc1`, 1000 s.
The value for `Cc1cc(-c2c(C)sc(C)c2S(=O)(=O)NC2CCCc3ccccc32)n[nH]1` (stereo not drawn) was 1120 s.
Compound `COc1ccccc1-c1noc(-c2nn(-c3ccc(Cl)cc3)ccc2=O)n1` came in with an RP-LC retention time of 832 s.
The compound `COC(=O)c1ncn2c1C(=O)N(C1CC1)C(C)(C(=O)NCc1ccc(C)cc1)C2` (stereo not drawn) yielded an RP-LC retention time of 643 s.
Compound `O=C(NCc1cccs1)c1nc(N2CCOCC2)c2ccccc2n1` registered an RP-LC retention time of 641 s.
Regarding `O=C(Nc1ccccc1)N1CCC(n2c(-c3ccco3)nc3cccnc32)C1` (stereo not drawn), the RP-LC retention time came to 716 s.
For `O=C(Nc1ccccc1Cl)C1CN(S(=O)(=O)C2CC2)CC12CCCCC2` (stereo not drawn) the value was 1020 s.
The value for `CCOc1ccc(-c2noc(Cn3ccn4nc(-c5ccc(Cl)cc5)cc4c3=O)n2)cc1OC` was 1130 s; that for `O=C(OCC(O)COC(=O)c1cccnc1)c1cccnc1` was 624 s.
For `Cc1nc2c(sc3nc(-c4ccccc4)ccc32)c(=O)n1CC(=O)NCc1ccc2c(c1)OCO2` the value was 985 s.
The compound `Cc1ccn2cc(-c3cccc(S(=O)(=O)N4CC(C)OC(C)C4)c3)nc2c1` (stereo not drawn) showed an RP-LC retention time of 647 s.
For `CCn1c(=O)c2ccccc2n(Cc2nc(-c3ccccc3OC)no2)c1=O`, the RP-LC retention time is 909 s.
In turn, `CCOc1ccccc1NC(=O)Cn1ncc2c(N3CCN(c4ccccn4)CC3)ncnc21` returned an RP-LC retention time of 628 s.
The compound `CCOC(=O)c1cc2c(cn1)[nH]c1ccccc12` yielded an RP-LC retention time of 691 s.
The value for `COc1ccc(-c2nc3c4ccccc4ncn3n2)cc1` was 924 s.
Regarding `O=C(NC1CCCCC1)C1(CCO)CC12CCN(c1ncccn1)CC2` (stereo not drawn), the RP-LC retention time came to 651 s.
For `CCOc1ccc(-c2nc(-c3cccc(-c4ccnn4C)c3)no2)cc1OCC` the value was 1210 s.
The value for `O=C(Nc1ccc2c(c1)OCO2)Nc1ccc2nc3n(c(=O)c2c1)CCCC3` was 651 s; that for `CN1CCN(c2ccc(-c3nc(-c4ccccc4)no3)cn2)CC1` was 664 s; that for `O=C(Nc1nnc(Cc2ccccc2)s1)C1CCN(C(=O)c2cccc(F)c2)CC1` was 798 s.
`CCOc1ccc(/C=C/C(=O)Nc2nc(-c3ccc4c(c3)N(CC)C(=O)CO4)cs2)cc1OC`: the RP-LC retention time was 1020 s.
In turn, `COC(=O)c1c(C)[nH]c(C(=O)N2CCC(CC(=O)NCc3ccc(SC)cc3)CC2)c1C` displayed an RP-LC retention time of 774 s.
The value for `O=C(Cc1nnc(-c2cccc(F)c2)o1)N1CCC2(CC1)OCCO2` was 698 s; that for `Cc1ccc(-n2c(N3CCCC(C(=O)NCc4ccc(Cl)cc4)C3)nc3ccsc3c2=O)cc1` (stereo not drawn) was 956 s; that for `Cc1ccc(NC(=O)c2nc3ccccc3[nH]c2=O)c(C)c1` was 778 s.
For `CCOC(=O)c1csc(NC(=O)Cn2cnc(C)cc2=O)n1` the value was 598 s; for `CCOc1ccccc1CNC(=O)c1ccc2[nH]c3c(c2c1)CN(C(C)=O)CC3`, 649 s.
With `CCN(CC)C(=O)c1cc2c(s1)CCC(C(=O)N1CCN(c3ccccn3)CC1)C2` (stereo not drawn), the RP-LC retention time was 629 s.
Consider `Cn1ncc2c(NCc3ccccc3)nc(NCc3ccccc3)nc21`, for which the RP-LC retention time turned out to be 652 s.
